Here are results for 16 compounds from patent US6436920B1, “Wrinkling modifiers” (Kao Corporation, priority 1996, dated 2002).

Structures are written as SMILES.

For the assay, the system named is Wrinkles formed on hairless mice by exposure to UVB. The experiment in a line: Effect of the guanidine derivatives on wrinkles formed on hairless mice by exposure to UVB. Format: in vivo, Hairless mice (HR/ICR). The settings on record: for Area percent by image analysis (%): proportion of shadows of wrinkles on back skin replicas (14 mm, illuminated at 30 degrees), 4% in aqueous ethanol, 100 μl 5 times a week over 6 weeks, control 10.6; for Wrinkle index: visual score 1 (wrinkles completely removed or smoothed) to 4 (observed to a great extent), 4% in aqueous ethanol (50/50 vol. %), 100 μl applied 5 times a week over 6 weeks, groups of 8 mice, control 3.73. The protocol:
Effect of the Guanidine Derivatives (1) to (16) on Wrinkles Formed on Hairless Mice by Exposure to UVB
(1) Hairless mice (HR/ICR, aged 6 weeks at the beginning of the experiment) were,exposed to UVB 3 times a week by using 6 Toshiba healthy lamps, 20SE. The amount of energy was measured by means of a UV-Radiometer, UVR-305/365D manufactured by TOKYO OPTICAL K.K. The dose upon one exposure was determined to be 1 MED or less, i.e., 65 mJ in an amount of energy of 0.28 mW/cm^2. The exposure was effected for 20 weeks. After confirming that the hairless mice had got wrinkles at their backs, they were divided into groups each consisting of 8 mice. Aqueous ethanol (water/ethanol=50/50 vol. %) solutions separately containing Compounds (1) to (16) at a concentration of 4% were applied 5 times a week to their corresponding groups of mice over 6 weeks in a dose of 100 μl. As a control, aqueous ethanol (water/ethanol=50/50 vol. %) was applied in a dose of 100 μl like the samples. After completion of the application, the degree of wrinkles was visually observed to evaluate the samples in accordance with the following standard (wrinkle index).
1: Wrinkles were completely removed or smoothed;
2: Wrinkles were scarcely observed;
3: Wrinkles were somewhat observed;
(2) In order to further analyze the particulars of wrinkles, skin replicas of the size of 14 mm in diameter were gathered from a portion of the back in each of the mice using a Hydrophilic Exaflex hydrophilic vinylsilicone impression material. Each of these replicas was held horizontally and illuminated at an angle of 30 degrees from the horizontal direction, thereby finding a proportion of shadows of the wrinkles as an area percent by means of an image analyzer.

In the case of `N=C(N)N1CC(O)CC1C(=O)O` (centres unmarked) [Compound (1)], the “Area percent by image analysis (%)” value is recorded as 3.21% and the Wrinkle index is 2.0.
Take `N=C(N)N1CCCC1C(=O)O` (centres unmarked) [Compound (2)]: the “Area percent by image analysis (%)” value worked out at 2.48% and the Wrinkle index came out at 2.125.
Turning to `N=C(N)N1CCC(O)C1` (centres unmarked) [Compound (3)], the “Area percent by image analysis (%)” value was 4.32% and the Wrinkle index is 2.50.
Regarding `N=C(N)N1CCCC1CO` (centres unmarked) [Compound (4)], the “Area percent by image analysis (%)” value came out at 5.37% and the Wrinkle index amounted to 2.50.
The corresponding values for `N=C(N)N1CCOCC1` [Compound (5)] are 4.76% and 2.75.
The corresponding values for `N=C(N)N1CCC(C(=O)O)CC1` [Compound (6)] are 3.51% and 2.75.
The corresponding values for `N=C(N)N1CCN(C(=N)N)CC1` [Compound (7)] are 4.28% and 2.75.
On to `N=C(N)N1CCC(O)C1` (centres unmarked) [Compound (8)], for which the “Area percent by image analysis (%)” value is listed as 3.26% and the Wrinkle index is 2.25.
The corresponding values for `N=C(N)N1CCCC1CO` (centres unmarked) [Compound (9)] are 4.00% and 2.375.
The corresponding values for `N=C(N)N1CCOCC1` [Compound (10)] are 3.41% and 2.50.
`N=C(N)N1CCN(C(=N)N)CC1` [Compound (11)]: the “Area percent by image analysis (%)” value amounted to 4.02% and the Wrinkle index is 2.75.
Regarding `N=C(N)N1CCC(O)C1` (centres unmarked) [Compound (12)], the “Area percent by image analysis (%)” value was 3.62% and the Wrinkle index came to 2.50.
For the compound `N=C(N)N1CCCC1CO` (centres unmarked) [Compound (13)], the “Area percent by image analysis (%)” value is recorded as 4.30% and the Wrinkle index turned out to be 2.375.
With `N=C(N)N1CCCC1` [Compound (14)], the “Area percent by image analysis (%)” value came to 3.62% and the Wrinkle index amounted to 2.125.
The corresponding values for `N=C(N)N1CCCCC1` [Compound (15)] are 4.48% and 2.50.
With `N=C(N)N1CCC(CC(=O)O)CC1` [Compound (16)], the “Area percent by image analysis (%)” value came to 4.25% and the Wrinkle index amounted to 2.25.
